# Measurements taken from PMC11864979, “First-in-class ultralong-target-residence-time p38α inhibitors as a mitosis-targeted therapy for colorectal cancer” (Nature Cancer, 2025).
# Read-outs that look alike come from different tables or passages of the source.
# Columns and labels:
# Test in all cases: selectivity profiling in a panel of 340 wild-type kinases (Reaction Biology Europe)
# Type in all cases: binding
# 340 wild-type kinases [1] = molecular target: T1, 340 wild-type kinases (Homo sapiens, UniProt P06213)
# T1 construct: purchased Reaction Biology Europe
# 340 wild-type kinases [2] = molecular target: T2, 340 wild-type kinases (Homo sapiens, UniProt P09769)
# T2 construct: purchased Reaction Biology Europe
# 340 wild-type kinases [3] = molecular target: T3, 340 wild-type kinases (Homo sapiens, UniProt P17948)
# T3 construct: purchased Reaction Biology Europe
# 340 wild-type kinases [4] = molecular target: T4, 340 wild-type kinases (Homo sapiens, UniProt P29376)
# T4 construct: purchased Reaction Biology Europe
# 340 wild-type kinases [5] = molecular target: T5, 340 wild-type kinases (Homo sapiens, UniProt P36888)
# T5 construct: purchased Reaction Biology Europe
# T5 sequence (P36888 27-993): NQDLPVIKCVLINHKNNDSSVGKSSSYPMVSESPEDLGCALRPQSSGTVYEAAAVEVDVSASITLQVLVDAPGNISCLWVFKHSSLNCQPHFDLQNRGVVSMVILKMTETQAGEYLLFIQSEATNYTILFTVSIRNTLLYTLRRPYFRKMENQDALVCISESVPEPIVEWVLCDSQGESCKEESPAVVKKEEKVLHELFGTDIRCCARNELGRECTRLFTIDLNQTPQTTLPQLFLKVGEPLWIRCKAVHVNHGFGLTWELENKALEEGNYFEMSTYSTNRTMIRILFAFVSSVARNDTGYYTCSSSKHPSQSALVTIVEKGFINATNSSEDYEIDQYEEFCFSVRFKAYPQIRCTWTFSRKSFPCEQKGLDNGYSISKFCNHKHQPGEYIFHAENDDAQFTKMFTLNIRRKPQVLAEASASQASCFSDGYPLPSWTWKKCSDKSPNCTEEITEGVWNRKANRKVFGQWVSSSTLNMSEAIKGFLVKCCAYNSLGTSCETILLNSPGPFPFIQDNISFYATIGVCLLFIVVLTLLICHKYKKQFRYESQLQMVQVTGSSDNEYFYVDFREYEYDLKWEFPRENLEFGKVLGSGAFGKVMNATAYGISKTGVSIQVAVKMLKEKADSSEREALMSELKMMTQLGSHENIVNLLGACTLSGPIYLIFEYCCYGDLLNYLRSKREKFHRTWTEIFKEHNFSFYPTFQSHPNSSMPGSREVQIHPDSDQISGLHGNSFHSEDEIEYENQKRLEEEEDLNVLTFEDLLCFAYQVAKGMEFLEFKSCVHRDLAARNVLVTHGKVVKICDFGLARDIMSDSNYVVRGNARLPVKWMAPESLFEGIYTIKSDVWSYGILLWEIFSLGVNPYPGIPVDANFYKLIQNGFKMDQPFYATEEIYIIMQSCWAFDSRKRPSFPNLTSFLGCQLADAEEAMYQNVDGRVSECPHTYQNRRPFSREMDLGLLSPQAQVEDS
# 340 wild-type kinases [6] = molecular target: T6, 340 wild-type kinases (Homo sapiens, UniProt P51813)
# T6 construct: purchased Reaction Biology Europe
# T6 sequence (P51813 1-675): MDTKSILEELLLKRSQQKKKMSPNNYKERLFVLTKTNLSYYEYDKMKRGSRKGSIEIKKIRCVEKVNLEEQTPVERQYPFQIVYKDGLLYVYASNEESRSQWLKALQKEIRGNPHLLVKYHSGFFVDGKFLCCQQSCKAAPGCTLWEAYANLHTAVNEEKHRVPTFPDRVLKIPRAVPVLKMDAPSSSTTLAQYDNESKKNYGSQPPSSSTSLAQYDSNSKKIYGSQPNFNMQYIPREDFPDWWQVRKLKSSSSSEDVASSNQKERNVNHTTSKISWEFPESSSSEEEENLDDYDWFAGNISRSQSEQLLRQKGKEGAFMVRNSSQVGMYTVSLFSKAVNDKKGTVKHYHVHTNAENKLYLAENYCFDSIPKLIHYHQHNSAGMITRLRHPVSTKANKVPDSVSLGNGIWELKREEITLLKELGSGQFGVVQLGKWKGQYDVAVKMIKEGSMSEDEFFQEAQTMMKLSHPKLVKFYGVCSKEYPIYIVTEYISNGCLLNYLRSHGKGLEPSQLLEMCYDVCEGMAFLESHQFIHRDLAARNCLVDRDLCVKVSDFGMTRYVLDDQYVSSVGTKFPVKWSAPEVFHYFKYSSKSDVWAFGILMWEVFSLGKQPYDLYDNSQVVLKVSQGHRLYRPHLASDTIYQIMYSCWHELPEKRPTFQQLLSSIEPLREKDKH
# 340 wild-type kinases [7] = molecular target: T7, 340 wild-type kinases (Homo sapiens, UniProt Q05655)
# T7 construct: purchased Reaction Biology Europe
# 340 wild-type kinases [8] = molecular target: T8, 340 wild-type kinases (Homo sapiens, UniProt Q07002)
# T8 construct: purchased Reaction Biology Europe
# 340 wild-type kinases [9] = molecular target: T9, 340 wild-type kinases (Homo sapiens, UniProt Q9UM73)
# T9 construct: purchased Reaction Biology Europe
# T9 sequence (Q9UM73 19-1620): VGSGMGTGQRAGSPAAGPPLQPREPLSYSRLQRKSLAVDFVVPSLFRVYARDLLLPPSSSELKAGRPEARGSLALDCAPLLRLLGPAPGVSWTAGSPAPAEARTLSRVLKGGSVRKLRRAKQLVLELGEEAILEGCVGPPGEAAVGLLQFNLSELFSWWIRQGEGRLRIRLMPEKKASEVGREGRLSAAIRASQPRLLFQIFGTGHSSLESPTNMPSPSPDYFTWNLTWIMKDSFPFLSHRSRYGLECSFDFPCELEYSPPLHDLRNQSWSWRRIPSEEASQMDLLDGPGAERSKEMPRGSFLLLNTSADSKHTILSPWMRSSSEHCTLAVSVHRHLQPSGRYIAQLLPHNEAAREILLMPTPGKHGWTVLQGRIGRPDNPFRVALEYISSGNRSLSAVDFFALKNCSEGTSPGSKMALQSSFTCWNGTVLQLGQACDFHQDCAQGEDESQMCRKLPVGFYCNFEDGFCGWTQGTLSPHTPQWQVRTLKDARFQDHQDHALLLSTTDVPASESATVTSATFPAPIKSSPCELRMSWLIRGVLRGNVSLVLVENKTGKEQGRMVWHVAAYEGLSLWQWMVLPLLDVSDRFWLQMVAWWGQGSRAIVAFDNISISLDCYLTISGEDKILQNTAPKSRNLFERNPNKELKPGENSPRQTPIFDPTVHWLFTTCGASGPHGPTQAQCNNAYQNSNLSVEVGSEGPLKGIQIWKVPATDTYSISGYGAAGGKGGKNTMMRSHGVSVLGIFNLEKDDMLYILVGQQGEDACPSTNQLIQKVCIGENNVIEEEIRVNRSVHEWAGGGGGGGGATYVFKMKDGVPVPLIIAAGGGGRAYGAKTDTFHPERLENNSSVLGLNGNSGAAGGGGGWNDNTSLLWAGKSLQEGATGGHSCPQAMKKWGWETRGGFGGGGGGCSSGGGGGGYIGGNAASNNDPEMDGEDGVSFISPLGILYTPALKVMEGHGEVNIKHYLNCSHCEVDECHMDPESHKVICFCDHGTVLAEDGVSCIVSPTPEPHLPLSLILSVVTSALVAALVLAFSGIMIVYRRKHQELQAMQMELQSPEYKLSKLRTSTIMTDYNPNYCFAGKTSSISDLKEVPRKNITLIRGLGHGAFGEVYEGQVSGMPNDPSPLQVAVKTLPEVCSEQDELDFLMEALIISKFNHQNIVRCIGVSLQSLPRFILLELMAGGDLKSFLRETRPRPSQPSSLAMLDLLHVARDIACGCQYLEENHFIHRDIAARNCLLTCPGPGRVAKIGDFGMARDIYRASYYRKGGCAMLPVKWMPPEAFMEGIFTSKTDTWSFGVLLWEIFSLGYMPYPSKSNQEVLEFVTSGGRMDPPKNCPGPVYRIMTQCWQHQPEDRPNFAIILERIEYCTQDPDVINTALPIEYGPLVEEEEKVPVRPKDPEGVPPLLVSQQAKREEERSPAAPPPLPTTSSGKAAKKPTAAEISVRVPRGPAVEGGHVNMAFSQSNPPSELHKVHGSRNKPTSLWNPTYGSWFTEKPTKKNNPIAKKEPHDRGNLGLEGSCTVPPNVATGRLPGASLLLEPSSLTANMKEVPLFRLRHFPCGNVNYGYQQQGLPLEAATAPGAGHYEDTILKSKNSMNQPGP
# T1 sequence (P06213 28-1382): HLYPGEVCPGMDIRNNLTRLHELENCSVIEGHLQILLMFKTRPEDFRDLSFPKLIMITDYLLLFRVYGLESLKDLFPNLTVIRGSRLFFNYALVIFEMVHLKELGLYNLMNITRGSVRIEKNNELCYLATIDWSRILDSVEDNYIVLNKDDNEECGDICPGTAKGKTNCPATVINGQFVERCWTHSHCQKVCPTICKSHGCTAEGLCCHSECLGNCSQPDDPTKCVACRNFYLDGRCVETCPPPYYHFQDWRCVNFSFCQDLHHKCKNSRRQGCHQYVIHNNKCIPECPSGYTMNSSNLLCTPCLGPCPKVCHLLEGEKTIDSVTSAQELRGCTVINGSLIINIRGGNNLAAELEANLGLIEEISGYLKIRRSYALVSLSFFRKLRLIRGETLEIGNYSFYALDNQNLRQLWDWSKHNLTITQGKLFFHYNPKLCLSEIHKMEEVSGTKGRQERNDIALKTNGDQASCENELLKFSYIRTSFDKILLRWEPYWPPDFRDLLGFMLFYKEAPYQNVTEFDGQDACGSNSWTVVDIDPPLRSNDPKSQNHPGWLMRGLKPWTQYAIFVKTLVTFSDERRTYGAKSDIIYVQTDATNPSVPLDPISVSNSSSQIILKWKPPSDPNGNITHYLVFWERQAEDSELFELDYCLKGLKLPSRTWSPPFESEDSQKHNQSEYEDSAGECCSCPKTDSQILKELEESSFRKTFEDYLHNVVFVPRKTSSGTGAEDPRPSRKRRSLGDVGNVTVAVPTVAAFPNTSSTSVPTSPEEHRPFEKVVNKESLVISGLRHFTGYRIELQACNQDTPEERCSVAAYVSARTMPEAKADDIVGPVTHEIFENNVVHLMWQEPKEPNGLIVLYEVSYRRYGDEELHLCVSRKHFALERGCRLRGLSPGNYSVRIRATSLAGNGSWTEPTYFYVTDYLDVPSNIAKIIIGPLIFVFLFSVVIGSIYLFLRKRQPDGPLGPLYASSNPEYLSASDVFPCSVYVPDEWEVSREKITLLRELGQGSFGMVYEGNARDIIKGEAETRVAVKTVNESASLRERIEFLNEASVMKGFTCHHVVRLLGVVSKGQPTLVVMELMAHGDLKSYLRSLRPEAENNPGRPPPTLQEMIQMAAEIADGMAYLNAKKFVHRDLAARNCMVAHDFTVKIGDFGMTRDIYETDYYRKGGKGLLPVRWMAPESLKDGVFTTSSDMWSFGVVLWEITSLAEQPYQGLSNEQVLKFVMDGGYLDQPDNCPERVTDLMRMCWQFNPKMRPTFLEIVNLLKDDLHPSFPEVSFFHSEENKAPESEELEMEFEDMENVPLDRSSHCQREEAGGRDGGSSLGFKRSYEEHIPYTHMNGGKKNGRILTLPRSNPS
# T7 sequence (Q05655 whole entry): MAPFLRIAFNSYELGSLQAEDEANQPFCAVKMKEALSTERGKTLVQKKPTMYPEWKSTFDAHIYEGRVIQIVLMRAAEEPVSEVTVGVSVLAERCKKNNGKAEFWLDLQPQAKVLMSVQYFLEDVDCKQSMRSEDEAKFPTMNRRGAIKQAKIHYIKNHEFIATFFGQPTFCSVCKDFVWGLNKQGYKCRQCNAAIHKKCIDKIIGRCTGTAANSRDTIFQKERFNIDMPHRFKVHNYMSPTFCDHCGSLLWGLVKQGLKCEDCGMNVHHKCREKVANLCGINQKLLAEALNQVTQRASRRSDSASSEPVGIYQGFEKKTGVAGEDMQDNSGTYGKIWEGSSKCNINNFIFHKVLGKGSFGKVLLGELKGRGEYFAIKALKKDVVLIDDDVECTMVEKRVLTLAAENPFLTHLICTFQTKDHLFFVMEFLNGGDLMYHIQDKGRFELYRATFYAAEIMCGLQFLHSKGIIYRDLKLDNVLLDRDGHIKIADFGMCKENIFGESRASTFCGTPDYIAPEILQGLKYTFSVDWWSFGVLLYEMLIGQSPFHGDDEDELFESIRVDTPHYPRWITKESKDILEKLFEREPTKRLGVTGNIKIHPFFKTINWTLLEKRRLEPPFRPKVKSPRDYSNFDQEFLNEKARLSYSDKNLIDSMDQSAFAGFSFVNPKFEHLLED
# T4 sequence (P29376 17-864): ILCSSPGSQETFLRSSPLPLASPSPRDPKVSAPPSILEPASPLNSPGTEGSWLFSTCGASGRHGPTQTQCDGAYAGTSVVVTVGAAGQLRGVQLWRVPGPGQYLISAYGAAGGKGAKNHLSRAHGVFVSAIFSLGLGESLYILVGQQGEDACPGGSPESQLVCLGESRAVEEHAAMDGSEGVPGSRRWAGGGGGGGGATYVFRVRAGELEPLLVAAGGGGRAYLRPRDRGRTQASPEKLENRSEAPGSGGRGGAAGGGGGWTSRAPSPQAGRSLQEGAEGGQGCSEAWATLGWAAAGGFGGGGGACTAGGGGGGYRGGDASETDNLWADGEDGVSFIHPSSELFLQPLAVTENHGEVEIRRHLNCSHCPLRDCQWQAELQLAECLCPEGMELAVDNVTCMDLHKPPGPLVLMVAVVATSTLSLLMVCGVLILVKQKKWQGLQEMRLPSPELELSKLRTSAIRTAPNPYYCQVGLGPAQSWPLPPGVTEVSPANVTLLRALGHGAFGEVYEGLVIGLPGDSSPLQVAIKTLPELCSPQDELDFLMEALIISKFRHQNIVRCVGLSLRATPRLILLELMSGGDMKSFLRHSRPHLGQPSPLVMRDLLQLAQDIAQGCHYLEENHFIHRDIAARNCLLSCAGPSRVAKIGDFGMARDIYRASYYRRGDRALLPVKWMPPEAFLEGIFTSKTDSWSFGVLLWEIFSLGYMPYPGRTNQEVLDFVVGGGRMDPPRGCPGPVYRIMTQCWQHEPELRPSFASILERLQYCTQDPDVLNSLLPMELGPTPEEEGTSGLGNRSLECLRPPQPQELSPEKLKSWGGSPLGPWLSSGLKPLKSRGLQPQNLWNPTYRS
# T8 sequence (Q07002 whole entry): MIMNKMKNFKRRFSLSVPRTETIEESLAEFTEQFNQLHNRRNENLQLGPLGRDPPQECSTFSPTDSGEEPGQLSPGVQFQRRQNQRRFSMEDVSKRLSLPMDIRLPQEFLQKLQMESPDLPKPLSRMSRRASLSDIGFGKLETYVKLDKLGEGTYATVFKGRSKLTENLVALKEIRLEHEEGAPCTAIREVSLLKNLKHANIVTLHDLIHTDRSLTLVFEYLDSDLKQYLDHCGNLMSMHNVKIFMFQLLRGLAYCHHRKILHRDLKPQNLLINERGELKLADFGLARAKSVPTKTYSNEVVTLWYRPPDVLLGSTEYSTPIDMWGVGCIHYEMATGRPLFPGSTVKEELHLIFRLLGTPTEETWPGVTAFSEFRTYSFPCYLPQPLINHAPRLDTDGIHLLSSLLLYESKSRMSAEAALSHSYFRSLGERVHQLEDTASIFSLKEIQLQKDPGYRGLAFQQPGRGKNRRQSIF
compound,measurement,setting,value
CNC(=O)c1ccc2c(c1)C(=O)c1ccc(Nc3ccc(F)c(NC(=O)C4CC4)c3)cc1CC2 [Compound 2015],remaining activity at 0.2 µM,"340 wild-type kinases [1]; 0.2 µM 2015, read-out: INSR residual activity",99.9%
same,remaining activity at 1 µM,"340 wild-type kinases [1]; 1 µM 2015, read-out: INSR residual activity",99.3%
same,remaining activity at 0.2 µM,"340 wild-type kinases [1]; INSR, 0.2 µM, read-out: residual activity",99.9%
same,remaining activity at 1 µM,"340 wild-type kinases [1]; INSR, 1 µM, read-out: residual activity",99.3%
same,remaining activity at 0.2 µM,"340 wild-type kinases [2]; 0.2 µM 2015, read-out: FGR residual activity",101%
same,remaining activity at 1 µM,"340 wild-type kinases [2]; 1 µM 2015, read-out: FGR residual activity",102%
same,remaining activity at 0.2 µM,"340 wild-type kinases [2]; FGR, 0.2 µM, read-out: residual activity",101%
same,remaining activity at 1 µM,"340 wild-type kinases [2]; FGR, 1 µM, read-out: residual activity",102%
same,remaining activity at 0.2 µM,"340 wild-type kinases [3]; 0.2 µM 2015, read-out: VEGFR1 residual activity",113%
same,remaining activity at 1 µM,"340 wild-type kinases [3]; 1 µM 2015, read-out: VEGFR1 residual activity",116%
same,remaining activity at 0.2 µM,"340 wild-type kinases [3]; VEGFR1, 0.2 µM, read-out: residual activity",113%
same,remaining activity at 1 µM,"340 wild-type kinases [3]; VEGFR1, 1 µM, read-out: residual activity",116%
same,remaining activity at 0.2 µM,"340 wild-type kinases [4]; 0.2 µM 2015, read-out: LTK residual activity",100%
same,remaining activity at 1 µM,"340 wild-type kinases [4]; 1 µM 2015, read-out: LTK residual activity",99.3%
same,remaining activity at 0.2 µM,"340 wild-type kinases [4]; LTK, 0.2 µM, read-out: residual activity",100%
same,remaining activity at 1 µM,"340 wild-type kinases [4]; LTK, 1 µM, read-out: residual activity",99.3%
same,remaining activity at 0.2 µM,"340 wild-type kinases [5]; 0.2 µM 2015, read-out: FLT3 residual activity",84.5%
same,remaining activity at 1 µM,"340 wild-type kinases [5]; 1 µM 2015, read-out: FLT3 residual activity",80%
same,remaining activity at 0.2 µM,"340 wild-type kinases [5]; FLT3, 0.2 µM, read-out: residual activity",84.5%
same,remaining activity at 1 µM,"340 wild-type kinases [5]; FLT3, 1 µM, read-out: residual activity",80%
same,remaining activity at 0.2 µM,"340 wild-type kinases [6]; 0.2 µM 2015, read-out: BMX residual activity",96.3%
same,remaining activity at 1 µM,"340 wild-type kinases [6]; 1 µM 2015, read-out: BMX residual activity",86.5%
same,remaining activity at 0.2 µM,"340 wild-type kinases [6]; BMX, 0.2 µM, read-out: residual activity",96.3%
same,remaining activity at 1 µM,"340 wild-type kinases [6]; BMX, 1 µM, read-out: residual activity",86.5%
same,remaining activity at 0.2 µM,"340 wild-type kinases [7]; 0.2 µM 2015, read-out: PKCdelta residual activity",95.6%
same,remaining activity at 1 µM,"340 wild-type kinases [7]; 1 µM 2015, read-out: PKCdelta residual activity",97%
same,remaining activity at 0.2 µM,"340 wild-type kinases [7]; PKCdelta, 0.2 µM, read-out: residual activity",95.6%
same,remaining activity at 1 µM,"340 wild-type kinases [7]; PKCdelta, 1 µM, read-out: residual activity",97%
same,remaining activity at 0.2 µM,"340 wild-type kinases [8]; 0.2 µM 2015, read-out: CDK18/CycY residual activity",102%
same,remaining activity at 1 µM,"340 wild-type kinases [8]; 1 µM 2015, read-out: CDK18/CycY residual activity",92.8%
same,remaining activity at 0.2 µM,"340 wild-type kinases [8]; CDK18/CycY, 0.2 µM, read-out: residual activity",102%
same,remaining activity at 1 µM,"340 wild-type kinases [8]; CDK18/CycY, 1 µM, read-out: residual activity",92.8%
same,remaining activity at 0.2 µM,"340 wild-type kinases [9]; 0.2 µM 2015, read-out: ALK residual activity",95.3%
same,remaining activity at 1 µM,"340 wild-type kinases [9]; 1 µM 2015, read-out: ALK residual activity",86.8%
same,remaining activity at 0.2 µM,"340 wild-type kinases [9]; ALK, 0.2 µM, read-out: residual activity",95.3%
same,remaining activity at 1 µM,"340 wild-type kinases [9]; ALK, 1 µM, read-out: residual activity",86.8%
